Patent publication US10251874B2, “Crystalline forms of a JAK inhibitor compound” (THERAVANCE BIOPHARMA R&D IP, LLC, priority 2017, dated 2019)

Tests used:
[1] = system: IL-2 stimulated pSTAT5 in CD4+ T cells; test: Assay 4: Inhibition of IL-2 stimulated pSTAT5 in CD4+ T cells; format: cell-based; settings: CD4+ T cells in human PBMCs, flow cytometry; read-out: pIC50, inhibition of IL-2 stimulated pSTAT5 (converted)
Description: The potency of the test compound for inhibition of interleukin-2 (IL-2)/anti-CD3 stimulated STATS phosphorylation was measured in CD4-positive (CD4+) T cells in human peripheral blood mononuclear cells (PBMCs) isolated from human whole blood (Stanford Blood Center) using flow cytometry. Because IL-2 signals through JAK, this assay provides a measure of JAK cellular potency.
CD4+T cells were identified using a […] (PE) conjugated anti-CD4 antibody (Clone RPA-T4, BD Biosciences), while an Alexa Fluor 647 conjugated anti-pSTAT5 antibody (pY694, Clone 47, BD Biosciences) was used to detect STATS phosphorylation.
(1) The protocol of Assay 3 paragraph (1) was followed with the exception that the cytokine stimulation with anti-CD3 was performed for 30 min instead of 24 h. […] After incubation, cells were washed twice in FACS buffer before being analyzed using a LSRII flow cytometer (BD Biosciences). To determine the inhibitory potency of the test compound in response to IL-^2/anti-CD3, the median fluorescent intensity (MFI) of pSTAT5 was measured in CD4+ T cells. IC50 values were determined from analysis of the inhibition curves of MFI vs compound concentration. Data are expressed as pIC50 (negative decadic logarithm IC50) values.

[2] = system: IFNγ-induced pSTAT1 in CD14+ monocytes; test: Assay 7: Inhibition of IFNγ-induced pSTAT1 in CD14+ monocytes; format: cell-based; settings: Homo sapiens, Monocyte, flow cytometry, read-out: pIC50, inhibition of IFNγ-induced pSTAT1 (converted)
Description: The potency of the test compound for inhibition of interferon gamma (IFNγ) stimulated STAT1 phosphorylation was measured in CD14-positive (CD14+) monocytes derived from human whole blood (Stanford Blood Center) using flow cytometry. Because IFNγ signals through JAK, this assay provides a measure of JAK cellular potency.
Monocytes were identified using a fluorescein isothiocyanate (FITC) conjugated anti-CD14 antibody (Clone RM052, Beckman Coulter), and an Alexa Fluor 647 conjugated anti-pSTAT1 antibody (pY701, Clone 4a, BD Biosciences) was used to detect STAT1 phosphorylation.
Human peripheral blood mononuclear cells (PBMC) were isolated from human whole blood of healthy donors using a ficoll gradient. […] Cells were washed twice with FACS buffer, and then resuspended in 1:10 anti-pSTAT1 Alexa Fluor 647:FACS buffer (100 μL) for 30 min at RT in the dark, washed twice in FACS buffer, and analyzed using a LSRII flow cytometer (BD Biosciences).
To determine the inhibitory potency of the test compound, the median fluorescent intensity (MFI) of pSTAT1 was measured in CD14+ monocytes. IC50 values were determined from analysis of the inhibition curves of MFI vs compound concentration. Data are expressed as pIC50 (negative decadic logarithm IC50) values.

[3] = Assay 8: Pharmacokinetics in plasma and lung in mouse; format: in vivo, BALB/c mice; settings: BALB/c, 10 µg/mouse, oral aspiration, 0.2 mg/mL, 50 uL, read-out: exposure in lung relative to exposure in plasma (lung AUC to plasma AUC ratio)
Description: Plasma and lung levels of test compounds and ratios thereof were determined in the following manner. BALB/c mice from Charles River Laboratories were used in the assay. Test compounds were individually formulated in 20% propylene glycol in pH 4 citrate buffer at a concentration of 0.2 mg/mL and 50 uL of the dosing solution was introduced into the trachea of a mouse by oral aspiration. At various time points (typically 0.167, 2, 6, 24 hr) post dosing, blood samples were removed via cardiac puncture and intact lungs were excised from the mice. Blood samples were centrifuged (Eppendorf centrifuge, 5804R) for 4 minutes at approximately 12,000 rpm at 4° C. to collect plasma. Lungs were padded dry, weighed, and homogenized at a dilution of 1:3 in sterile water. Plasma and lung levels of test compound were determined by LC-MS analysis against analytical standards constructed into a standard curve in the test matrix. A lung to plasma ratio was determined as the ratio of the lung AUC in μg hr/g to the plasma AUC in μg hr/mL, where AUC is conventionally defined as the area under the curve of test compound concentration vs. time.

CCc1cc(O)c(F)cc1-c1ccc2c(-c3nc4c([nH]3)CCN(C3CCN(C)CC3)C4)n[nH]c2c1 [Compound 1, 5-ethyl-2-fluoro-4-(3-(5-(1-methylpiperidin-4-yl)-4,5,6,7-tetrahydro-1H-imidazo[4,5-c]pyridin-2-yl)-1H-indazol-6-yl)phenol]
IC50 [1]: ~20 nM | IC50 [2]: ~31.6 nM | Kp [3]: ~55
